Target: hCRTH2 receptor (Homo sapiens (Human), UniProt Q9Y5Y4)
Experiment: hCRTH2 receptor membranes radioligand (3H-PGD2) displacement assay
Format: binding
Conditions: 3H-PGD2 radioligand displacement, HEK293-hCRTH2 membranes
Procedure, shortened: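 Compound was first mixed with buffer, then 3H-PGD2 was added at 2.5 nM, and the reaction was started with hCRTH2 membranes from HEK293 cells at 20 μg/well. After 90 min at room temperature, mixtures were filtered and washed with ice-cold buffer, and retained radioactivity was counted.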

hCRTH2 receptor, sequence (Q9Y5Y4 whole entry): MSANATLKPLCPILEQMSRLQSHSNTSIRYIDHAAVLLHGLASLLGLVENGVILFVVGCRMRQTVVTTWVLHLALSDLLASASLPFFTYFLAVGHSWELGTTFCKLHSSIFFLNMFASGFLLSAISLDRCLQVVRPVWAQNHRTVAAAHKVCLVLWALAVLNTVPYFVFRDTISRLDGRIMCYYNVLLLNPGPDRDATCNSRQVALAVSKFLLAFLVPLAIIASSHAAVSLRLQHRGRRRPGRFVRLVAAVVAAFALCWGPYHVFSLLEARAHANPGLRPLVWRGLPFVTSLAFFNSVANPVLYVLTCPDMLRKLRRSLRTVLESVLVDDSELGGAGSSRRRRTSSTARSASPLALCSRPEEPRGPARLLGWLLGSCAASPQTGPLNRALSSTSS

Compound	IC50
CCOc1cc(CC(=O)O)ccc1-c1ccc(F)c2c1CN(C(=O)OCC1CCCC1)CC2 [Example 392, 8-(4-Carboxymethyl-2-ethoxy-phenyl)-5-fluoro-3,4-dihydro-1H-isoquinoline-2-carboxylic acid cyclopentylmethyl ester]	0.0059 µM
COc1ccccc1CNC(=O)N1CCc2c(F)ccc(-c3cc(CC(=O)O)ccc3OC)c2C1 [Example 135, {3-[5-Fluoro-2-(2-methoxy-benzylcarbamoyl)-1,2,3,4-tetrahydro-isoquinolin-8-yl]-4-methoxy-phenyl}-acetic acid]	0.0196 µM
COc1ccc(CC(=O)O)cc1-c1ccc(F)c2c1CCN(C(=O)[C@@H]1C[C@H]1c1ccccc1)C2 [Example 99, {3-[8-Fluoro-2-((1R,2R)-2-phenyl-cyclopropanecarbonyl)-1,2,3,4-tetrahydro-isoquinolin-5-yl]-4-methoxy-phenyl}-acetic acid]	0.414 µM
CCOc1ccc(CC(=O)O)cc1-c1ccc(F)c2c1CN(C(=O)/C=C/c1cnn(C)c1)CC2 [Example 341, (4-Ethoxy-3-{5-fluoro-2-[(E)-3-(1-methyl-1H-pyrazol-4-yl)-acryloyl]-1,2,3,4-tetrahydro-isoquinolin-8-yl}-phenyl)-acetic acid]	0.0058 µM
COc1ccc(CC(=O)O)cc1-c1ccc(F)c2c1CN(C(=O)CC(C)(O)c1ccccc1)CC2 (racemic) [Example 256]	0.0498 µM
COc1ccc(CC(=O)O)cc1-c1ccc(F)c2c1CCN(C(=O)OCc1ccccc1)C2 [Example 159, 5-(5-Carboxymethyl-2-methoxy-phenyl)-8-fluoro-3,4-dihydro-1H-isoquinoline-2-carboxylic acid benzyl ester]	0.594 µM
CCOc1ccc(CC(=O)O)cc1-c1ccc(F)c2c1CN(C(=O)CC1(c3ccccc3F)CC1)CC2 [Example 276, [4-Ethoxy-3-(5-fluoro-2-{2-[1-(2-fluoro-phenyl)-cyclopropyl]-acetyl}-1,2,3,4-tetrahydro-isoquinolin-8-yl)-phenyl]-acetic acid]	0.0359 µM
COc1ccc(CC(=O)O)cc1-c1ccc(F)c2c1CN(C(=O)C1Cc3ccccc3C1)CC2 [Example 110, {3-[5-Fluoro-2-(indane-2-carbonyl)-1,2,3,4-tetrahydro-isoquinolin-8-yl]-4-methoxy-phenyl}-acetic acid]	0.172 µM
O=C(O)Cc1cccc(-c2ccc(F)c3c2CN(C(=O)OCc2ccccc2)CC3)c1F [Example 16, 8-(3-Carboxymethyl-2-fluoro-phenyl)-5-fluoro-3,4-dihydro-1H-isoquinoline-2-carboxylic acid benzyl ester]	0.0252 µM
CCCNC(=O)N1CCc2c(F)ccc(-c3ccc(CC(=O)O)cc3OCC)c2C1 [Example 447, [3-Ethoxy-4-(5-fluoro-2-propylcarbamoyl-1,2,3,4-tetrahydro-isoquinolin-8-yl)-phenyl]-acetic acid]	0.0782 µM
COc1ccc(CC(=O)O)cc1-c1ccc(F)c2c1CN(C(=O)CCCc1ccccc1)CC2 [Example 117, {3-[5-Fluoro-2-(4-phenyl-butyryl)-1,2,3,4-tetrahydro-isoquinolin-8-yl]-4-methoxy-phenyl}-acetic acid]	0.00541 µM
COc1ccc(/C=C/C(=O)N2CCc3c(F)ccc(-c4cc(CC(=O)O)ccc4OC)c3C2)cn1 [Example 86, (3-{5-Fluoro-2-[(E)-3-(6-methoxy-pyridin-3-yl)-acryloyl]-1,2,3,4-tetrahydro-isoquinolin-8-yl}-4-methoxy-phenyl)-acetic acid]	0.0705 µM
CCOc1cc(CC(=O)O)ccc1-c1ccc(F)c2c1CN(C(=O)O[C@H](C)c1ccccc1)CC2 [Example 385, 8-(4-Carboxymethyl-2-ethoxy-phenyl)-5-fluoro-3,4-dihydro-1H-isoquinoline-2-carboxylic acid (R)-1-phenyl-ethyl ester]	0.0358 µM
COc1cc(OCC(=O)O)ccc1-c1ccc(F)c2c1CN(C(=O)OCc1ccccc1)CC2 [Example 424, 8-(4-Carboxymethoxy-2-methoxy-phenyl)-5-fluoro-3,4-dihydro-1H-isoquinoline-2-carboxylic acid benzyl ester]	0.444 µM
COc1ccc(CC(=O)O)cc1-c1ccc(F)c2c1CN(C(=O)/C=C/c1nc3ccccc3s1)CC2 [Example 88, {3-[2-((E)-3-Benzothiazol-2-yl-acryloyl)-5-fluoro-1,2,3,4-tetrahydro-isoquinolin-8-yl]-4-methoxy-phenyl}-acetic acid]	0.00914 µM
CC(C)(CC(=O)N1CCc2c(F)ccc(-c3cc(CC(=O)O)ccc3OCC(F)(F)F)c2C1)c1ccccc1 [Example 300, [3-[5-Fluoro-2-(3-methyl-3-phenyl-butyryl)-1,2,3,4-tetrahydro-isoquinolin-8-yl]-4-(2,2,2-trifluoro-ethoxy)-phenyl]-acetic acid]	0.0148 µM
CCOc1cc(CC(=O)O)ccc1-c1ccc(F)c2c1CN(C(=O)NCc1ccccc1Cl)CC2 [Example 444, {4-[2-(2-Chloro-benzylcarbamoyl)-5-fluoro-1,2,3,4-tetrahydro-isoquinolin-8-yl]-3-ethoxy-phenyl}-acetic acid]	0.002 µM

Compound	IC50
CCOc1cc(CC(=O)O)ccc1-c1ccc(F)c2c1CN(C(=O)OCc1cnccn1)CC2 [Example 386, 8-(4-Carboxymethyl-2-ethoxy-phenyl)-5-fluoro-3,4-dihydro-1H-isoquinoline-2-carboxylic acid pyrazin-2-ylmethyl ester]	0.0034 µM
COc1ccc(-c2ccc(F)c3c2CN(C(=O)OCc2ccccc2)CC3)cc1CC(=O)O [Example 13, 8-(3-Carboxymethyl-4-methoxy-phenyl)-5-fluoro-3,4-dihydro-1H-isoquinoline-2-carboxylic acid benzyl ester]	0.0723 µM
COc1ccc(CC(=O)O)cc1-c1ccc(F)c2c1CN(C(=O)CCc1ccccc1C)CC2 [Example 56, {3-[5-Fluoro-2-(3-o-tolyl-propionyl)-1,2,3,4-tetrahydro-isoquinolin-8-yl]-4-methoxy-phenyl}-acetic acid]	0.0421 µM
CCOc1ccc(CC(=O)O)cc1-c1ccc(F)c2c1CN(C(=O)CC(C)c1cnccn1)CC2 (racemic) [Example 281]	0.0275 µM
COc1ccc(CC(=O)O)cc1-c1ccc(F)c2c1CN(C(=O)C1Cc3ccccc3CO1)CC2 (racemic) [Example 274]	0.0582 µM
O=C(O)Cc1ccc(-c2ccc(F)c3c2CN(C(=O)OCc2ccccc2)CC3)cc1 [Example 41, 8-(4-Carboxymethyl-phenyl)-5-fluoro-3,4-dihydro-1H-isoquinoline-2-carboxylic acid benzyl ester]	0.0449 µM
CCOc1ccc(CC(=O)O)cc1-c1ccc(F)c2c1CN(C(=O)NCc1cccc(F)c1)CC2 [Example 433, {4-Ethoxy-3-[5-fluoro-2-(3-fluoro-benzylcarbamoyl)-1,2,3,4-tetrahydro-isoquinolin-8-yl]-phenyl}-acetic acid]	0.0593 µM
COc1ccc(CC(=O)O)cc1-c1ccc(Cl)c2c1CN(C(=O)CCc1cn(C)c3ccccc13)CC2 [Example 75, (3-{5-Chloro-2-[3-(1-methyl-1H-indol-3-yl)-propionyl]-1,2,3,4-tetrahydro-isoquinolin-8-yl}-4-methoxy-phenyl)-acetic acid]	0.0384 µM
CCOc1cc(CC(=O)O)ccc1-c1ccc(F)c2c1CN(C(=O)NCc1ccccc1OC)CC2 [Example 445, {3-Ethoxy-4-[5-fluoro-2-(2-methoxy-benzylcarbamoyl)-1,2,3,4-tetrahydro-isoquinolin-8-yl]-phenyl}-acetic acid]	0.0025 µM
CCOc1cc(CC(=O)O)ccc1-c1ccc(F)c2c1CN(C(=O)/C=C/c1cnn(C)c1)CC2 [Example 339, (3-Ethoxy-4-{5-fluoro-2-[(E)-3-(1-methyl-1H-pyrazol-4-yl)-acryloyl]-1,2,3,4-tetrahydro-isoquinolin-8-yl}-phenyl)-acetic acid]	0.0127 µM
COc1ccc(CC(=O)O)cc1-c1ccc(F)c2c1CN(C(=O)[C@@H]1C[C@H]1c1cccc(Cl)c1)CC2 (racemic) [Example 4, (±)-(3-{2-[trans-2-(3-Chloro-phenyl)-cyclopropanecarbonyl]-5-fluoro-1,2,3,4-tetrahydro-isoquinolin-8-yl}-4-methoxy-phenyl)-acetic acid]	0.00539 µM
O=C(O)Cc1cc(F)cc(-c2ccc(F)c3c2CN(C(=O)OCc2ccccc2)CC3)c1 [Example 14, 8-(3-Carboxymethyl-5-fluoro-phenyl)-5-fluoro-3,4-dihydro-1H-isoquinoline-2-carboxylic acid benzyl ester]	0.0148 µM
C[C@H](CC(=O)N1CCc2c(F)ccc(-c3ccc(CC(=O)O)cc3OCC(F)(F)F)c2C1)c1ccccc1 [Example 347, [4-[5-Fluoro-2-((R)-3-phenyl-butyryl)-1,2,3,4-tetrahydro-isoquinolin-8-yl]-3-(2,2,2-trifluoro-ethoxy)-phenyl]-acetic acid]	0.0015 µM
CC(C)Oc1cc(CC(=O)O)ccc1-c1ccc(F)c2c1CN(C(=O)CC(C)(C)c1ccccc1)CC2 [Example 354, {4-[5-Fluoro-2-(3-methyl-3-phenyl-butyryl)-1,2,3,4-tetrahydro-isoquinolin-8-yl]-3-isopropoxy-phenyl}-acetic acid]	0.0042 µM
O=C(O)COc1ccc(OC(F)(F)F)c(-c2ccc(F)c3c2CN(C(=O)[C@@H]2C[C@H]2c2ccccc2)CC3)c1 [Example 160, {3-[5-Fluoro-2-((1R,2R)-2-phenyl-cyclopropanecarbonyl)-1,2,3,4-tetrahydro-isoquinolin-8-yl]-4-trifluoromethoxy-phenoxy}-acetic acid]	0.00067 µM
COc1ccc(CC(=O)O)cc1-c1ccc(F)c2c1CN(C(=O)NCc1cccc(F)c1)CC2 [Example 131, {3-[5-Fluoro-2-(3-fluoro-benzylcarbamoyl)-1,2,3,4-tetrahydro-isoquinolin-8-yl]-4-methoxy-phenyl}-acetic acid]	0.0601 µM
CC(C)Oc1cc(CC(=O)O)ccc1-c1ccc(F)c2c1CN(C(=O)C[C@@H](C)c1ccccc1)CC2 [Example 356, {4-[5-Fluoro-2-((R)-3-phenyl-butyryl)-1,2,3,4-tetrahydro-isoquinolin-8-yl]-3-isopropoxy-phenyl}-acetic acid]	0.0021 µM
